Assay results from publication PMC4448982, “LP-925219 maximizes urinary glucose excretion in mice by inhibiting both renal SGLT1 and SGLT2” (Pharmacology Research & Perspectives, 2015).

What was measured:
[1] = tested on: renal SGLT1 and SGLT2; test: Metabolic cage study, 24-h urinary glucose excretion; assay type: in vivo, mouse
Procedure: (§1) Mice were individually housed in Nalgene Metabolic Cages for Mice (product MTB-0311), and 24-h urine collections were made to determine 24-h UGE, as described previously (Powell et al. [2013a]). Some mice received a single dose of either LP-925219 or vehicle by oral gavage at 8 am immediately prior to initiating collection of 24-h urine samples; in addition, some mice received two doses of either vehicle or 60 mg/kg LP-925219 by oral gavage, with the first dose given at 8 am and the second dose given at 6 pm, nearly midway through the collection of the 24-h urine sample.
(§2) Figure 5 UGE values in mice treated with a single dose of LP-925219. After DKO, S2 KO, S1 KO, and WT littermate mice received, by a single oral gavage at 8 am, either vehicle (Veh) or LP-925219 at a dose of (A) 1 mg/kg; (B) 10 mg/kg; or (C) 60 mg/kg, the mice were placed in metabolic cages and their urine was collected over the next 24 h and analyzed for total glucose. N = 5–11 mice/group. UGE < DKO UGE: *P < 0.05, **P < 0.01, ***P < 0.001; LP-925219 UGE > Veh UGE for the same group, ^^^P < 0.001. UGE, urinary glucose excretion.
(§3) Figure 6 UGE values in mice treated with two doses of 60 mg/kg LP-925219. DKO, S2 KO, S1 KO, and WT littermate mice received, by oral gavage at 8 am and then again at 6 pm, either vehicle (Veh) or LP-925219 at a dose of 60 mg/kg. The mice were placed in metabolic cages after the first gavage and their urine was collected over the next 24 h and analyzed for total glucose. N = 6–11 mice/group. UGE < DKO UGE, ***P < 0.001; LP-925219 UGE > Veh UGE for the same group, ^^^P < 0.001. UGE, urinary glucose excretion.

[2] = target: T1, renal SGLT1 and SGLT2 (Mus musculus, UniProt Q8C3K6); test: as above; assay type: in vivo; conditions: SGLT2 KO mice
T1 construct: from tissue; host or cells: kidney of living WT, SGLT1 KO, SGLT2 KO and DKO mice (C57BL/6J-129 SvEv hybrid)
T1 sequence (Q8C3K6 1-665): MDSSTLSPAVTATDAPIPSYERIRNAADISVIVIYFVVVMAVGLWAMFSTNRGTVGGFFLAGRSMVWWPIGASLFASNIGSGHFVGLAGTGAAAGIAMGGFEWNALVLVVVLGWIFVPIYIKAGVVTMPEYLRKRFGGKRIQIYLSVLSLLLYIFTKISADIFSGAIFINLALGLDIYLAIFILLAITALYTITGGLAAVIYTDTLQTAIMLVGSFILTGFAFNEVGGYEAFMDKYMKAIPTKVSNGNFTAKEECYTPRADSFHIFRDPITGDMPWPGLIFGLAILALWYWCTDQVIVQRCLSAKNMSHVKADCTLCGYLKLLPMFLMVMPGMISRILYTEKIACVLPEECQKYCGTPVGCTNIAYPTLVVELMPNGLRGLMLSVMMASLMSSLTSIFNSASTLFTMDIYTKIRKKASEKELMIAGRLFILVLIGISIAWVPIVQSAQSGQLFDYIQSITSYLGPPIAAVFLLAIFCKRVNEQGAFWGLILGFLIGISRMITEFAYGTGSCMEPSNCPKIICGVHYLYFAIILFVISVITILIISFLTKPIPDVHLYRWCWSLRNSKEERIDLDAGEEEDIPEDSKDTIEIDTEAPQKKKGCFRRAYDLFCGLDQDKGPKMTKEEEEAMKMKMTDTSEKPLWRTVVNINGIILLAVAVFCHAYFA
Procedure: as §1, §2, §3

For `COc1ccc(Cc2cc([C@@H]3O[C@H](SC)[C@@H](O)[C@H](O)[C@H]3O)ccc2Cl)cc1` [LP-925219], the “24-h UGE” value ([1]; DKO mice, single oral dose 1, 10 or 60 mg/kg, vs vehicle) was “not significantly increased”, the “24-h UGE” value ([1]; DKO mice, two oral 60 mg/kg doses (8 am, 6 pm), vs vehicle) was “not significantly increased” and the “24-h UGE” value ([1]; SGLT1 KO mice, single oral dose 1 mg/kg) was “almost maximal”. The “24-h UGE” value ([1]; SGLT1 KO mice, single oral dose, all higher doses (10, 60 mg/kg)) was “maximal”, the “24-h UGE” value ([1]; SGLT1 KO mice, two oral 60 mg/kg doses (8 am, 6 pm)) was “maximally increased” and the “24-h UGE” value ([1]; WT mice, single oral dose 1 mg/kg, vs vehicle) was “did not show a significant response”. For the same compound, the “24-h UGE” value ([1]; WT mice, single oral dose 60 mg/kg, maximal = vehicle-treated DKO) was 68 ± 15 % of maximal, the “24-h UGE” value ([1]; WT mice, two oral 60 mg/kg doses (8 am, 6 pm)) was 90 ± 17 % of maximal and the “24-h UGE” value ([2]; single oral dose 60 mg/kg, maximal = vehicle-treated DKO) was 80 ± 18 % of maximal. The “24-h UGE” value ([2]; single oral dose 1 or 10 mg/kg, vs vehicle) was “did not show a significant increase” and the “24-h UGE” value ([2]; two oral 60 mg/kg doses (8 am, 6 pm)) was 89 ± 16 % of maximal.
